Values after ≈ are worked out from the molar mass of the structure shown. Read-outs that look alike come from different tables or passages of the source.
Legend:
[1] = system: HL60 (human promyelocytic leukemia) cells; test: MTT cytotoxicity assay, HL60; type: cell-based; details: HL-60, 72 h, 72 hours continuous exposure
From the text: (§1) The cancerous and noncancerous cell lines (suspension and anchorage-dependent cells) were obtained from the American Type Culture Collection (ATCC) and the RIKEN Cell Bank (RCB). The cancerous cell lines used were HL-60 (human acute promyelocytic leukemia) (RCB), K562 (human chronic myeloid leukemia) (ATCC), MCF7 (human estrogen receptor (ER+) positive breast cancer) (ATCC), HeLa (human cervical cancer) (ATCC), HepG2 (human hepatocarcinoma) (ATCC), HT29 (human colon cancer) (RCI), and MDA-MB 231 (human estrogen receptor (ER−) negative) (ATCC). The noncancerous cell line and normal cells were 3T3 (Mouse embryo fibroblast) (ATCC), MCF10A (human nontumorigenic breast cell line) (ATCC) and PBMC (human peripheral blood mononuclear cells). PBMCs were obtained from one of the authors herself. Blood (10–12 mL) was taken from the donor by using the 25 mL syringe. The blood sample was diluted with same volume of PBS. The diluted blood sample was carefully layered on Ficoll-Paque Plus (Amersham Biosciences, USA) the ratio of 2 : 1. The mixture was centrifuged at 1500× g for 40 minutes at 18–20°C. The undisturbed lymphocyte layer was carefully transferred into centrifuge tube. […]
(§2) The colorimetric assay was performed on the isolated compounds using a modified microculture tetrazolium salt (MTT) assay (Sigma, USA). […] After incubation, the fractions of surviving cells were determined relative to the untreated cell population using the colorimetric MTT assay. In this method, the viabilities of the cells were determined by measuring the amount of blue formazan crystals formed after 20 mL of freshly prepared MTT solution (5 mg in 1 mL PBS) was added to each well followed by four hours of incubation at 37°C. […] Finally, the absorbance (OD) of each well at 570 nm of wavelength was read using the microplate reader (ELISA reader, EL340 Biokinetic Reader, Bio-Tek Instrumentation). […] The percentage of cell viability was determined as follows: […]

[2] = system: MCF7 (human estrogen receptor (ER+) positive breast cancer) cells; test: MTT cytotoxicity assay, MCF7; type: cell-based; details: 72 hours continuous exposure
From the text: The cancerous and noncancerous cell lines (suspension and anchorage-dependent cells) were obtained from the American Type Culture Collection (ATCC) and the RIKEN Cell Bank (RCB). The cancerous cell lines used were HL-60 (human acute promyelocytic leukemia) (RCB), K562 (human chronic myeloid leukemia) (ATCC), MCF7 (human estrogen receptor (ER+) positive breast cancer) (ATCC), HeLa (human cervical cancer) (ATCC), HepG2 (human hepatocarcinoma) (ATCC), HT29 (human colon cancer) (RCI), and MDA-MB 231 (human estrogen receptor (ER−) negative) (ATCC). The noncancerous cell line and normal cells were 3T3 (Mouse embryo fibroblast) (ATCC), MCF10A (human nontumorigenic breast cell line) (ATCC) and PBMC (human peripheral blood mononuclear cells). PBMCs were obtained from one of the authors herself. Blood (10–12 mL) was taken from the donor by using the 25 mL syringe. The blood sample was diluted with same volume of PBS. The diluted blood sample was carefully layered on Ficoll-Paque Plus (Amersham Biosciences, USA) the ratio of 2 : 1. The mixture was centrifuged at 1500× g for 40 minutes at 18–20°C. The undisturbed lymphocyte layer was carefully transferred into centrifuge tube. The lymphocyte was washed and spun down three times by adding 10 mL sterile PBS and to get the pellet and resuspended in RPMI 1640 (Sigma, USA) with 100 IU/mL of penicillin, 100 μg/mL of streptomycin (Flowlab, Australia), and 10% v/v Fetal Bovine Serum (FBS) (PAA, Austria). Cell counting was performed to determine the PBMC number in equal volume of trypan blue.
as §2, with “USA). Varying concentrations of 0.46, 0.93, 1.87, 3.75, 7.5, 15, and 30 μg/mL of pyranocycloartobiloxanthone A (1), dihydroartoindonesianin C (2), and pyranocycloartobiloxanthone B (3) were prepared from the substock solutions by serial dilution in RPMI 1640 to give a volume of 100 μL in each microtitre plate well (96-flat bottom microwell plates). Each well was then added with 100 μL of cell lines in complete growth media (RPMI 1640) 5 × 10^5 cells/mL.” for “USA).”

[3] = system: K562 (human chronic myeloid leukemia) cells; test: MTT cytotoxicity assay, K562; type: cell-based; details: K562, 72 h, 72 hours continuous exposure
From the text: (§3) The cancerous and noncancerous cell lines (suspension and anchorage-dependent cells) were obtained from the American Type Culture Collection (ATCC) and the RIKEN Cell Bank (RCB). The cancerous cell lines used were HL-60 (human acute promyelocytic leukemia) (RCB), K562 (human chronic myeloid leukemia) (ATCC), MCF7 (human estrogen receptor (ER+) positive breast cancer) (ATCC), HeLa (human cervical cancer) (ATCC), HepG2 (human hepatocarcinoma) (ATCC), HT29 (human colon cancer) (RCI), and MDA-MB 231 (human estrogen receptor (ER−) negative) (ATCC). […]
as §2

[4] = system: PBMC (human peripheral blood mononuclear cells); test: MTT cytotoxicity assay, PBMC; type: cell-based; details: PBMC (normal), 72 hours continuous exposure
From the text: as §1, §2

MCF7 cells [5] = test: Cell proliferation ELISA BrdU assay, MCF7; type: cell-based, human; details: MCF7, treated at IC50 concentration (5 μg/mL)
Procedure: (§4) This assay was conducted to determine the antiproliferative effects of the tested compound. In this assay, three different concentrations of compound or test sample were prepared together with control. The concentration chosen were 1 μg/mL, the IC50 concentration, and 20 μg/mL. Two types of cells were selected: HL-60 (suspension) and MCF7 (adherent) cells, since they gave the most significant results for the cytotoxic activity. The procedures are according to the instruction manual from Roche. Each sample was assayed in triplicate, and control samples include a blank (no cells) and background (without BrdU). The cells were treated by pyranocycloartobiloxanthone A (1) for 24, 48, and 72 hours. The cells were cultured together with various dilutions of test substance (tested compound) in 96-well MP flat bottom in a final volume of 100 μL/well, and 10 μL BrdU label (diluted by 1/2000 in media) was added to each well and incubated for 24 hour at 37°C. BrdU label was then replaced with 200 μL of fix/denaturing solution for 30 min at room temperature (25°C) and removed by inverting the plate. The anti-BrdU-POD working solution (100 μL/well) (diluted by 1/100 in dilution buffer) was added and incubated for one hour at room temperature. The cells were washed three times with wash buffer and once with dH2O. Then, removed dH2O and 100 μL of substrate solution was added to each well and incubated for 15 min at room temperature in the dark. The stop solution (100 μL/well) was added, and the absorbance was measured using ELISA reader at 450 nm, (reference wavelength 690). The activity was observed by the optical density (OD) of the absorbance at 450 nm, and graphs were plotted from the optical density obtained against time of exposure for each cell lines.

[6] = system: MDA-MB 231 (human estrogen receptor (ER-) negative) cells; test: MTT cytotoxicity assay, MDA-MB 231; type: cell-based; details: MDA-MB 231, MTT, 72 hours continuous exposure
From the text: as §3, §2

[7] = system: HepG2 (human hepatocarcinoma) cells; test: MTT cytotoxicity assay, HepG2; type: cell-based; details: 72 hours continuous exposure
From the text: as §3, §2

MCF7 cells [8] = test: Acridine orange / propidium iodide staining, MCF7; type: cell-based, human; details: MCF7, 5 μg/mL (IC50), 72 hours
Procedure: (§5) Cell suspensions were mixed with an equal volume of staining solution (1 : 1) containing 10 μg/mL acridine orange and 10 μg/mL propium iodide (dissolved in PBS) and observed under fluorescence microscope within 30 minutes. The viable (green intact cells), apoptotic (green shrinking cells with condensed of fragmented nucleus), and necrotic (red cells) were the morphological changes that were examined under fluorescence microscope.

[9] = system: HT29 (human colon cancer) cells; test: MTT cytotoxicity assay, HT29; type: cell-based; details: HT-29, 72 hours continuous exposure
From the text: as §3, §2

HL60 cells [10] = test: Cell proliferation ELISA BrdU assay, HL60; type: cell-based, human; details: HL60, treated at IC50 concentration (2 μg/mL)
Procedure: as §4

HL60 cells [11] = test: Acridine orange / propidium iodide staining, HL60; type: cell-based, human; details: HL60, 2 μg/mL (IC50), 72 hours
Procedure: as §5

[12] = system: MCF10A (human nontumorigenic breast cell line); test: MTT cytotoxicity assay, MCF10A; type: cell-based; details: MCF10A (normal), 72 hours continuous exposure
From the text: as §3, §2

[13] = system: 3T3 (mouse embryo fibroblast) cells; test: MTT cytotoxicity assay, 3T3; type: cell-based; details: 3T3, MTT, 72 hours continuous exposure
From the text: as §3, §2

[14] = system: HeLa (human cervical cancer) cells; test: MTT cytotoxicity assay, HeLa; type: cell-based; details: 72 hours continuous exposure
From the text: as §3, §2

Molecule CC1Oc2c(O)cc(O)c3c2C(Cc2c-3oc3c4c(cc(O)c3c2=O)OC(C)(C)C=C4)C1O (stereo not drawn) [compound 3, pyranocycloartobiloxanthone B] has an IC50 [1] of 17 ± 0.8 µg/mL (≈ 37.7 µM), an IC50 [2] of 23 ± 1.3 µg/mL (≈ 51.1 µM) and an IC50 [3] greater than 30 µg/mL.

COc1cccc2c1C(=O)c1c(O)c3c(c(O)c1C2=O)C[C@@](O)(C(=O)CO)C[C@@H]3O[C@H]1C[C@H](N)[C@H](O)[C@H](C)O1 [Doxorubicin, reference compound] was tested, and the IC50 [1] was 0.2 ± 0.03 µg/mL (≈ 0.368 µM), the IC50 [2] was 0.2 ± 0.06 µg/mL (≈ 0.368 µM) and the IC50 ([4]; Homo sapiens, read-out: IC50) was greater than 30 µg/mL.

C=C(C)c1cc2c(=O)c3c(O)cc4c(c3oc2c2c1C(C)(O)CC2=O)C=CC(C)(C)O4 (stereo not drawn) [compound 2, dihydroartoindonesianin C] was tested, and the IC50 [1] was 26 ± 0.8 µg/mL (≈ 62.1 µM), the IC50 [2] was 27 ± 1.9 µg/mL (≈ 64.5 µM) and the IC50 [3] was greater than 30 µg/mL.

For CC1C(O)Oc2c(O)cc(O)c3c2C1Cc1c-3oc2c3c(cc(O)c2c1=O)OC(C)(C)C=C3 (stereo not drawn) [compound 1, pyranocycloartobiloxanthone A], the “OD value (BrdU ELISA, 450 nm)” value (MCF7 cells [5]; 24 hours, untreated 1.44) was 0.89, the “OD value (BrdU ELISA, 450 nm)” value (MCF7 cells [5]; 48 hours, untreated 2.08) was 0.75 and the “OD value (BrdU ELISA, 450 nm)” value (MCF7 cells [5]; 72 hours, untreated 2.88) was 0.66. For the same molecule, the IC50 [6] was 12 ± 1.1 µg/mL (≈ 26.6 µM), the IC50 [7] was 20 ± 2 µg/mL (≈ 44.4 µM) and the “mode of cell death (AO/PI morphology)” value (MCF7 cells [8]) was “kill both cells in apoptotic manner”. The IC50 [2] was 5 ± 1.2 µg/mL (≈ 11.1 µM), the IC50 [9] was 14 ± 1.5 µg/mL (≈ 31.1 µM) and the IC50 ([4]; Homo sapiens, read-out: IC50) was greater than 30 µg/mL. The IC50 [4] was “not toxic”, the “OD value (BrdU ELISA, 450 nm)” value (HL60 cells [10]; 24 hours, untreated 1.34) was 0.8 and the “OD value (BrdU ELISA, 450 nm)” value (HL60 cells [10]; 48 hours, untreated 1.26) was 0.78. The “OD value (BrdU ELISA, 450 nm)” value (HL60 cells [10]; 72 hours, untreated 1.65) was 0.66, the “mode of cell death (AO/PI morphology)” value (HL60 cells [11]) was “kill both cells in apoptotic manner” and the IC50 ([12]; Homo sapiens, MCF-10A, read-out: IC50) was greater than 30 µg/mL. For the same molecule, the IC50 [12] was “not toxic”, the IC50 [13] was 7 ± 1.6 µg/mL (≈ 15.5 µM) and the IC50 [14] was 8 ± 3.3 µg/mL (≈ 17.8 µM).

Reference: paper PMC3179866, “Antiproliferative Activity of Xanthones Isolated from Artocarpus obtusus” (Journal of Biomedicine and Biotechnology, 2011)
